Organism: Rattus norvegicus
Assay: Open TG-GATES - Regimen: Single
Assay type: toxicity, organism-based, Sprague-Dawley
Design: regimen Single, gender Male, age 6 weeks
Settings: in vivo, po, route gavage; for TC / TG / TP / gamma-GTP / ALT / AST / CRE / Ca / DBIL / GLC / K / LDH / Na / PL / RALB / TBIL / Cl: tissue Plasma; for KIDNEY_L / KIDNEY_R / KIDNEY_TOTAL: tissue Kidney; for LIVER: tissue Liver
[1] = 240 mg/kg, 3 h, dose level Middle
[2] = 240 mg/kg, 3 h, tissue Blood, dose level Middle
[3] = 240 mg/kg, 6 h, dose level Middle
[4] = 240 mg/kg, 6 h, tissue Blood, dose level Middle
[5] = 240 mg/kg, 9 h, dose level Middle
[6] = 240 mg/kg, 9 h, tissue Blood, dose level Middle
[7] = 240 mg/kg, 24 h, dose level Middle
[8] = 240 mg/kg, 24 h, tissue Blood, dose level Middle

Q: What does the source list for COc1ccc([C@@H]2Sc3ccccc3N(CCN(C)C)C(=O)[C@@H]2OC(C)=O)cc1 [DILTIAZEM]?
A: TC (80 mg/kg, 24 h, dose level Low): 78.2 mg/dL; TG (80 mg/kg, 24 h, dose level Low): 67.8 mg/dL; TP (80 mg/kg, 24 h, dose level Low): 5.5 g/dL; gamma-GTP (80 mg/kg, 24 h, dose level Low): 1 IU/L; TERMINAL_BW [1]: 186.7 g; Bas [2]: 0%; Eos [2]: 0.8%; Fbg [2]: 284.8 mg/dL; Hb [2]: 12.6 g/dL; Ht [2]: 38.9%; Lym [2]: 75%; MCHC [2]: 32.3%; MCV [2]: 65.9 fL; Mono [2]: 3.2%; PT [2]: 14.7 s; Plat [2]: 119.4 x10_4/uL; RBC [2]: 588.8 x10_4/ul; WBC [2]: 87.8 x10_2/uL; KIDNEY_L [1]: 0.9 g; KIDNEY_R [1]: 0.9 g; KIDNEY_TOTAL [1]: 1.7 g; LIVER [1]: 8.4 g; ALT [1]: 45.2 IU/L; AST [1]: 84 IU/L; CRE [1]: 0.2 mg/dL; Ca [1]: 10.8 mg/dL; DBIL [1]: 0.012 mg/dL; GLC [1]: 186.4 mg/dL; K [1]: 4.4 meq/L; LDH [1]: 70.4 IU/L; Na [1]: 142 meq/L; PL [1]: 136.8 mg/dL; RALB [1]: 2.5 g/dL; TBIL [1]: 0.03 mg/dL; TC [1]: 75 mg/dL; TG [1]: 58 mg/dL; TP [1]: 5.2 g/dL; gamma-GTP [1]: 1 IU/L; TERMINAL_BW [3]: 187.5 g; Bas [4]: 0%; Eos [4]: 0.8%; Fbg [4]: 303.8 mg/dL; Ht [4]: 40.7%; Lym [4]: 80%; MCHC [4]: 32%; MCV [4]: 67.1 fL; Mono [4]: 3%; PT [4]: 14.7 s; Plat [4]: 120.8 x10_4/uL; RBC [4]: 608.2 x10_4/ul; WBC [4]: 79.2 x10_2/uL; KIDNEY_L [3]: 0.9 g; KIDNEY_R [3]: 0.8 g; KIDNEY_TOTAL [3]: 1.7 g; LIVER [3]: 8.1 g; ALT [3]: 44.8 IU/L; AST [3]: 73.4 IU/L; CRE [3]: 0.2 mg/dL; Ca [3]: 10.9 mg/dL; Cl [3]: 106.6 meq/L; DBIL [3]: 0.014 mg/dL; GLC [3]: 182.8 mg/dL; K [3]: 4.2 meq/L; LDH [3]: 54.4 IU/L; Na [3]: 142.8 meq/L; PL [3]: 153.6 mg/dL; RALB [3]: 2.6 g/dL; TBIL [3]: 0.034 mg/dL; TC [3]: 86.2 mg/dL; TG [3]: 47.2 mg/dL; TP [3]: 5.3 g/dL; gamma-GTP [3]: 1.2 IU/L; TERMINAL_BW [5]: 182 g; APTT [6]: 17.3 s; Bas [6]: 0.2%; Eos [6]: 0.8%; Fbg [6]: 305.8 mg/dL; Hb [6]: 12.9 g/dL; Ht [6]: 40.1%; Lym [6]: 78.6%; MCHC [6]: 32.2%; MCV [6]: 67 fL; Mono [6]: 2.6%; PT [6]: 14.8 s; Plat [6]: 121.1 x10_4/uL; RBC [6]: 599.4 x10_4/ul; WBC [6]: 83.9 x10_2/uL; KIDNEY_L [5]: 0.9 g; KIDNEY_R [5]: 0.9 g; KIDNEY_TOTAL [5]: 1.7 g; LIVER [5]: 7.9 g; ALT [5]: 41.8 IU/L; AST [5]: 71.8 IU/L; CRE [5]: 0.1 mg/dL; Ca [5]: 10.7 mg/dL; Cl [5]: 105.6 meq/L; DBIL [5]: 0.012 mg/dL; GLC [5]: 171.6 mg/dL; K [5]: 4.1 meq/L; LDH [5]: 50.8 IU/L; Na [5]: 143 meq/L; PL [5]: 150.4 mg/dL; RALB [5]: 2.5 g/dL; TBIL [5]: 0.028 mg/dL; TC [5]: 82 mg/dL; TG [5]: 45.8 mg/dL; TP [5]: 5.2 g/dL; gamma-GTP [5]: 1 IU/L; TERMINAL_BW [7]: 196.9 g; Bas [8]: 0%; Eos [8]: 1%; Fbg [8]: 271.8 mg/dL; Hb [8]: 13 g/dL; Ht [8]: 39.6%; Lym [8]: 75.6%; MCHC [8]: 32.9%; MCV [8]: 64.6 fL; Mono [8]: 2.8%; PT [8]: 14.8 s; Plat [8]: 120 x10_4/uL; RBC [8]: 614.2 x10_4/ul; WBC [8]: 85.8 x10_2/uL; KIDNEY_L [7]: 0.9 g; KIDNEY_R [7]: 0.9 g; KIDNEY_TOTAL [7]: 1.8 g; LIVER [7]: 9.5 g; ALT [7]: 51 IU/L; AST [7]: 76.2 IU/L; CRE [7]: 0.2 mg/dL; Ca [7]: 11.2 mg/dL; Cl [7]: 106.8 meq/L; DBIL [7]: 0.018 mg/dL; GLC [7]: 173.6 mg/dL; K [7]: 4.2 meq/L; LDH [7]: 82.4 IU/L; Na [7]: 144.4 meq/L; PL [7]: 150.4 mg/dL; RALB [7]: 2.7 g/dL; TBIL [7]: 0.022 mg/dL; TC [7]: 81.2 mg/dL; TG [7]: 95.8 mg/dL; TP [7]: 5.5 g/dL
